Our source for the IC50 values is patent US9174969B2, “Indoline scaffold SHP-2 inhibitors and cancer treatment method” (UNIVERSITY OF SOUTH FLORIDA, priority 2008, dated 2015).

Molecules are shown by their SMILES.

In this test the target is Shp2 (Homo sapiens (Human), UniProt Q06124). The test is described as follows: in vitro phosphotyrosine phosphatase activity (DiFMUP) assay. It is filed as biochemical. The note with it: mean ± spread over n tests. As to the method: All reagents were purchased from commercial suppliers and used without further purification. Melting points were determined using a Barnstead international melting point apparatus and remain uncorrected. ^1H NMR spectra were recorded on a Varian Mercury 400 MHz spectrometer with CDCl3 or DMSO-d6 as the solvent. ^13C NMR spectra are recorded at 100 MHz. All coupling constants are measured in Hertz (Hz) and the chemical shifts (δH and δC) are quoted in parts per million (ppm) relative to TMS (δ0), which was used as the internal standard. High resolution mass spectroscopy was carried out on an Agilent 6210 LC/MS (ESI-TOF). Microwave reactions were performed in CEM 908005 model and Biotage initiator 8 machines. HPLC analysis was performed using a JASCO HPLC system equipped with a PU-2089 Plus quaternary gradient pump and a UV-2075 Plus UV-VIS detector, using an Alitech Kromasil C-18 column (150×4.6 mm, 5 μm). Thin layer chromatography was performed using silica gel 60 F254 plates (Fisher), with observation under UV when necessary. Anhydrous solvents (acetonitrile, dimethyl formamide, ethanol, isopropanol, methanol and tetrahydrofuran) were used as purchased from Aldrich. HPLC grade solvents (methanol, acetonitrile and water) were purchased from Burdick and Jackson for HPLC and mass analysis.
Sequence of Shp2 (Q06124 whole entry): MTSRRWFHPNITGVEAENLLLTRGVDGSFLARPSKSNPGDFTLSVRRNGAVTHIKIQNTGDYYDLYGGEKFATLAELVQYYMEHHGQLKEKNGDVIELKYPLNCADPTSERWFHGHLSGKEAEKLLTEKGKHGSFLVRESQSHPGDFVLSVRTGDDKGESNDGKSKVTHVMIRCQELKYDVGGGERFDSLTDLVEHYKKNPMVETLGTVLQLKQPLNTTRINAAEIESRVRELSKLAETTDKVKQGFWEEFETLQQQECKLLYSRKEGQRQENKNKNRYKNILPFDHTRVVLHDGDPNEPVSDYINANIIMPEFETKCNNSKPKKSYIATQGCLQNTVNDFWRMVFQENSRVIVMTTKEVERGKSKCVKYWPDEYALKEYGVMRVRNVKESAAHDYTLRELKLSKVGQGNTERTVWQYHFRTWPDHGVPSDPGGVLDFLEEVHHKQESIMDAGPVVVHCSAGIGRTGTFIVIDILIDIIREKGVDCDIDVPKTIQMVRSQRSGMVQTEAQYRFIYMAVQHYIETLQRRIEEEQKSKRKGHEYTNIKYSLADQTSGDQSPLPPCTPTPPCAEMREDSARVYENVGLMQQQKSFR
By IC50 is commonly meant the concentration that gives 50% inhibition. High values mean a need for much substance, low ones inhibition by little substance. In turn, `O=C(Cc1ccccc1)N1CCc2cc(S(=O)(=O)N3CCN(c4cccc(Cl)c4)CC3)ccc21` [JF031, 1-(5-(4-(3-Chlorophenyl)piperazin-1-ylsulfonyl)indolin-1-yl)-2-phenyleth anone] displayed an IC50 of 22.8 ± 4.5 µM.

Compound `CCOC(=O)CCNC(=O)N1CCc2cc(S(=O)(=O)N3CCN(c4cccc(Cl)c4)CC3)ccc21` [JHE-02-010A, Ethyl 3-(5-(4-(3-chlorophenyl)piperazin-1-ylsulfonyl)indoline-1-carboxamido)propanoate] registered an IC50 of 9.3 ± 2.2 µM.

As for `O=C(Nc1cccc(F)c1)N1CCc2cc(S(=O)(=O)N3CCN(c4cccc(Cl)c4)CC3)ccc21` [JF039, 5-(4-(3-Chlorophenyl)piperazin-1-ylsulfonyl)-N-(3-fluorophenyl)indoline-1-carboxamide], the IC50 was 8.1 ± 1.7 µM.

For `O=C(C1CCCC1)N1CCc2cc(S(=O)(=O)N3CCN(c4cccc(Cl)c4)CC3)ccc21` [JF026, (5-(4-(3-Chlorophenyl)piperazin-1-ylsulfonyl)indolin-1-yl)(cyclopentyl)methanone], 6.9 ± 2.2 µM corresponded to half-maximal inhibition (IC50).

Turning to `CC1Cc2cc(S(=O)(=O)N3CCN(c4cccc(Cl)c4)CC3)ccc2N1C(=O)CCC(=O)O` (stereo not drawn) [JHE-02-119, 4-(5-(4-(3-Chlorophenyl)piperazin-1-ylsulfonyl)-2-methylindolin-1-yl)-4-oxobutanoic acid], half-maximal inhibition (IC50) was put at 2.5 ± 0.5 µM.

Turning to `O=C(O)CCCC(=O)N1CCc2cc(S(=O)(=O)N3CCN(c4cccc(Cl)c4)CC3)ccc21` [JHE-01-129B, 5-(5-(4-(3-Chlorophenyl)piperazin-1-ylsulfonyl)indolin-1-yl)-5-oxopentanoic acid], the IC50 stood at 2.8 ± 0.7 µM.

`O=C(O)CCC(=O)N1CCc2cc(S(=O)(=O)N3CCN(c4cccc(C(F)(F)F)c4)CC3)ccc21` [XW2-031B, 4-oxo-4-(5-(4-(3-(trifluoromethyl)phenyl)piperazin-1-ylsulfonyl)indolin-1-yl)butanoic acid] yielded an IC50 of 11.3 ± 3.1 µM.

Consider `O=C(O)/C=C\C(=O)N1CCc2cc(S(=O)(=O)N3CCN(c4cccc(Cl)c4)CC3)ccc21` [JHE-01-129A, (Z)-4-(5-(4-(3-Chlorophenyl)piperazin-1-ylsulfonyl)indolin-1-yl)-4-oxobut-2-enoic acid], for which half-maximal inhibition (IC50) required 2.8 ± 0.7 µM.

In turn, `CC(NC(=O)N1CCc2cc(S(=O)(=O)N3CCN(c4cccc(Cl)c4)CC3)ccc21)C(=O)O` (stereo not drawn) [JHE-02-017B, 2-(5-(4-(3-Chlorophenyl)piperazin-1-ylsulfonyl)indoline-1-carboxamido)propanoic acid] returned an IC50 of 6.4 ± 0.5 µM.

For `CCC(C)C(NC(=O)N1CCc2cc(S(=O)(=O)N3CCN(c4cccc(Cl)c4)CC3)ccc21)C(=O)OC` (stereo not drawn) [JHE-02-029A, Methyl 2-(5-(4-(3-chlorophenyl)piperazin-1-ylsulfonyl)indoline-1-carboxamido)-3-methylpentanoate], the IC50 turned out to be 12.7 ± 0.7 µM.

`O=C(c1ccccc1)N1CCc2cc(S(=O)(=O)N3CCN(c4cccc(Cl)c4)CC3)ccc21` [JF022, (5-(4-(3-Chlorophenyl)piperazin-1-ylsulfonyl)indolin-1-yl)(phenyl)methanone] gave an IC50 of 8.4 ± 2.3 µM.

`O=C(O)CCC(=O)N1CCc2cc(S(=O)(=O)N3CCN(c4ccccc4)CC3)ccc21` [XW2-038A, 4-oxo-4-(5-(4-Phenylpiperazin-1-ylsulfonyl)indolin-1-yl)butanoic acid] showed an IC50 of 14.8 ± 7.3 µM.

The compound `O=C(O)C(O)CC(=O)N1CCc2cc(S(=O)(=O)N3CCN(c4cccc(Cl)c4)CC3)ccc21` (stereo not drawn) [JHE-02-067] registered a half-inhibitory concentration (IC50) of 1.3 ± 0.5 µM.

`O=C(Nc1ccc(Cl)c(Cl)c1)N1CCc2cc(S(=O)(=O)N3CCN(c4cccc(Cl)c4)CC3)ccc21` [JHE-02-068A, 5-(4-(3-Chlorophenyl)piperazin-1-ylsulfonyl)-N-(3,4-dichlorophenyl)indoline-1-carboxamide] came in with an IC50 of 5.7 ± 2.5 µM.

On to `O=C(Nc1ccccc1F)N1CCc2cc(S(=O)(=O)N3CCN(c4cccc(Cl)c4)CC3)ccc21` [JF035, 5-(4-(3-Chlorophenyl)piperazin-1-ylsulfonyl)-N-(2-fluorophenyl)indoline-1-carboxamide], for which the midpoint of inhibition, the IC50, lay at 12.2 ± 2 µM.
